Laboratory results as given in patent US9034874B2, “Carbamate/urea derivatives” (NOVARTIS AG, priority 2012, dated 2015).

Experiments:
human H3 receptors = human H3 receptors (Homo sapiens (Human), UniProt Q9Y5N1); test: Affinity assessment: displacement of [3H]-N-α-Methylhistamine binding to membranes; conditions: membranes containing human H3 receptors, radioligand [3H]-N-α-Methylhistamine
Method: The affinity of compounds of the invention to the H3 receptor can be assessed by measuring displacement of binding of the radioligand [3H]-N-α-Methylhistamine (PerkinElmer, #NET1027250UC) to membranes containing human H3 receptors (PerkinElmer, #ES-392-M400UA; GenBank: NM_007232.2; Hill S J et al, International Union of Pharmacology XIII. Classification of histamine receptors, Pharmacol Rev, 49(3), 253-278, 1997).
2. Compound serial dilution: Dilution was performed by BioTek Precision on compound dilution plate. Compound concentrations start at 5 or 10 μM, 10 point dose titrations with 3- or 5-fold serial dilutions.
3. Preparation of 2× membrane solution (25 ml): 1.25 ml human Histamine H3 receptor stock, 23.75 ml assay buffer.
4. Preparation of 2× solution of [3H]-N-α-methylhistamine (25 ml): 4.27 μl [3H]-N-α-methylhistamine stock, 25 ml assay buffer.
5. Assemble binding reaction: (a) transfer 1 μl of compound solution, 1 μl 100% DMSO and 1 μl 1 M (R)(−)-α-Methylhistamine (Sigma, #H128) to the reaction plate at room temperature, (b) transfer 50 μl of 2× protein solution to reaction plate, (c) transfer 49 μl of 2× radioligand solution to reaction plate (Corning® 96 well EIA/RIA plate; Sigma, #CLS3797).
6. Cover the reaction plate with a TopSeal™-A film (Perkin Elmer, #6005185) and incubate at 28° C. for 120 min. Equilibrate Zeba Spin Desalting Plates (Thermo Scientific, #89808) to room temperature for 120 min.
7. Remove the sealing material from the bottom of the filtration plate. Place the plate on a wash plate. Centrifuge at 1000 g for 2 min to remove the storage buffer at room temperature.
8. Transfer 70 μl binding reaction from reaction plate into filtration plates. Place the filtration plates on top of collection plate. Centrifuge the plate assembly at 1000 g for 2 min to collect the protein with bound radioligand. Add 200 μl of Microscint-40 (PerkinElmer, #6013641-1L) to each well of the collection plate. Cover the plates with TopSeal™-A film.
9. Read the plates on Wallac Microbeta Trilux 2450, Instrument settings: counting mode: CPM, counting time: 2 min.
10. Data analysis: GraphPad Prism: log (compound concentration) vs. response; variable slope. The Ki is calculated based on Chang and Prusoff: Ki=IC50/{1+([radioligand]/Kd)}

tele-methylhistamine = test: Effects on brain tele-methylhistamine levels; assay type: in vivo, rat; conditions: male Sprague-Dawley rats, oral, frontal cortex
Method: Compounds of the invention were dissolved in 20% 2-hydroxyl-beta-cyclodextran (HBC) and then sonicated briefly until there is little or no suspension in the solution. Animals (male Sprague-Dawley rats at the age of 8 weeks) were orally dosed with test compounds I hour or other longer time points before they were sacrificed using CO2.
A cardiac puncture was performed to collect blood sample from the cardiac cavity. The collected blood was immediately mixed with EDTA-K2 20 μl/ml to avoid blood clotting. The blood samples in tubes were then centrifuged (15 mim, 6000 rpm) and the plasma transferred to new tubes and then temporarily kept in dry ice until they were stored in a −70° C. freezer.
CSF collection: CSF samples were taken from the foramen magnum of the animal (using a #0.5 intravenous needle), and the CSF sample were kept in dry ice.
The rat brain were taken out of the skull and rinsed with ice-cold saline first. The frontal cortex was separated from the rest of the brain on top of a petri dish with ice underneath. The wet weight of the frontal cortex was weighed and recorded immediately. The frontal cortex sample was then kept in dry ice until they are transferred to a −70° C. freezer.
Bioanalytical Methods for Tele-Methyl Histamine and Compounds:
• Instrument: Agilent 6410, triple quadrupole mass spectrometer • Matrix: rat plasma, frontal cortex homogenate and cerebrospinal fluid (CSF) • Analyte: H3 compounds. • Internal standard: Dexamethasone HPLC Conditions Mobile Phase A: H2O—0.1% NH3.H2O: • Mobile phase B: MeOH-0.1% NH3.H2O • Column: Ultimate XB-C18 (2.1×50 mm, 5 μm) • Flow rate: 0.45 mL/min, temperature: 40° C. MS Conditions: • ESI: positive ion • MRM detection • Dexamethasone: [M+H]+m/z 393.3→373.2; CE: 4; Fragmentor: 110 Sample Preparation: Frontal Cortex:
the brain sample was homogenized for 2 min with 3 volumes (v/w) of homogenizing solution (EtOH:PBS=85:15), and then centrifuged at 12,000 rpm for 5 min. […]

Chain of human H3 receptors (Q9Y5N1 whole entry): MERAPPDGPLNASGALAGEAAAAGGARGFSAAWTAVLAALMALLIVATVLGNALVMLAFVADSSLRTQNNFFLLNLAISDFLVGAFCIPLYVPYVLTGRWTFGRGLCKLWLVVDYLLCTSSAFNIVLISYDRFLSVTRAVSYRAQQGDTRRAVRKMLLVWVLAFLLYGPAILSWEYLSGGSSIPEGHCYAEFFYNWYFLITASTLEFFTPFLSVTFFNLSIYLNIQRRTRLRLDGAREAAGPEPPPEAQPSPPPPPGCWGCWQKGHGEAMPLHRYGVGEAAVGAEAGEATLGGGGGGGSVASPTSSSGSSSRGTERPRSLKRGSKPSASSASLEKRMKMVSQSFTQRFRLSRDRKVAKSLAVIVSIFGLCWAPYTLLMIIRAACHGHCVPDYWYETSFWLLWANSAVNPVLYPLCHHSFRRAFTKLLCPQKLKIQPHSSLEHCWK

| Ki (human H3 receptors) | Structure (SMILES) | % change in tele-methylhistamine brain levels for 10 mg/kg @ 1 h (tele-methylhistamine) |
| --- | --- | --- |
| 26 nM | O=C(OC1CCN(c2ccc(=O)[nH]n2)CC1)N1CCN(C2CCC2)CC1 [Example 1.1, 1-(6-oxo-1,6-dihydropyridazin-3-yl)piperidin-4-yl 4-cyclobutylpiperazine-1-carboxylate] | 72% |
| 31 nM | CC(C)N1CCN(C(=O)OC2CCN(c3ccc(=O)n(C)n3)CC2)CC1 [Example 1.2, 1-(1-methyl-6-oxo-1,6-dihydropyridazin-3-yl)piperidin-4-yl 4-isopropylpiperazine-1-carboxylate] | 138% |
| 10 nM | CC(C)N1CCN(C(=O)OC2CCN(c3ccc(=O)[nH]n3)CC2)CC1 [Example 1.3, 1-(6-oxo-1,6-dihydropyridazin-3-yl)piperidin-4-yl 4-isopropylpiperazine-1-carboxylate] | 115% |
